Results from publication PMC13619113 (Journal of controlled release : official journal of the …, 2023).

Key:
Sprague-Dawley rats [1] = assay: Blood glucose response after subcutaneous administration; assay type: in vivo, rat; conditions: subcutaneous 1 IU/kg, fasted Sprague-Dawley rats, Fig. 7
[2] = system: 50:50 coculture of Caco-2:HT29-MTX cells
Sprague-Dawley rats [3] = assay: Blood glucose response after intestinal closed-loop; assay type: in vivo, rat
[4] = rat, in vivo

| Substance | effect on blood glucose level (Sprague-Dawley rats [1]) | Papp × 10^−9 (cm/s) [2] | increase of the pharmacological availability over insulin (Sprague-Dawley rats [3]; 50 IU/kg to the small intestine, rat) [times] | effect on blood glucose level (Sprague-Dawley rats [3]; 50 IU/kg delivered directly to the ileum, Fig. 8) | AUC [4] [µg·h/mL] | BA (%) [4] [%] |
| --- | --- | --- | --- | --- | --- | --- |
| 1KPI: bovine insulin conjugated with 1000 da PEG via PEG nitrophenyl carbonate | effective at reducing the glucose levels below baseline throughout the testing period | 3.28 ± 0.88 × 10^−9 cm/s |  |  |  |  |
| 2KPI: bovine insulin conjugated with 2000 da PEG via PEG nitrophenyl carbonate, 1:1, at LysB29 |  | 2.90 ± 0.86 × 10^−9 cm/s | 2.8 |  |  |  |
| 5KPI: bovine insulin conjugated with 5000 da PEG via PEG nitrophenyl carbonate | least effect of the PEGylated insulin samples on blood glucose levels | 2.44 ± 0.06 × 10^−9 cm/s |  |  |  |  |
| Bovine insulin | effective at reducing the glucose levels below baseline throughout the testing period |  |  | limited hypoglycemic response | 12.61 ± 9.85 | 1.064 ± 0.83 |
